# Patent US10266609B2, “Immunomodulating beta-1,6-D-glucans” (Innate Biotherapeutics, LLC, priority 2014, dated 2019)
# Tested on: Anti-β-1,6-Glucan IgG antibodies (affinity purified from IVIG, Baxter)
# Experiment: ELISA: binding of oligosaccharides to anti-β-1,6-glucan antibodies; also: key: a plus (+) sign indicates that the glucan was active in the assay; a minus (−) sign indicates that the glucan was not active; the '+/−' symbol indicates inconclusive results
# Details: plate coated with oligosaccharide in PBS; 40 ug/mL anti-Beta 1,6 Glucan IgG; anti-human IgG-HRP, TMB, absorbance at 620 nm
# How it was run: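 Oligosaccharides coated overnight at 4° C in PBS, casein-blocked 1 h at room temperature, then incubated 45 min with 40 ug/mL anti-β-1,6-glucan IgG. Bound IgG detected with anti-human IgG-HRP (1:5000, 45 min, dark) and TMB; absorbance at 620 nm read every 1 min for 60 min.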
row,Compound,ELISA assay data: glucan active in detection of anti-beta glucan IgG
1,"N-[6-[(O-(β-D-glucopyranosyl-(1,6))3-β-D-glucopyranosyl](2RS,3R,4R,5R)-2,3,4,5-tetrahydroxyhexyl]-4-piperidylacetic acid [4-piperidine(CH2)CO2H, n=4]",+
2,"CN(Cc1ccc(C(=O)O)cc1)CC(O)[C@@H](O)[C@H](O)[C@H](O)CO[C@@H]1O[C@H](CO[C@@H]2O[C@H](CO[C@@H]3O[C@H](CO[C@@H]4O[C@H](CO)[C@@H](O)[C@H](O)[C@H]4O)[C@@H](O)[C@H](O)[C@H]3O)[C@@H](O)[C@H](O)[C@H]2O)[C@@H](O)[C@H](O)[C@H]1O (mixture of isomers) [N(Me),N(CH2)4-BzOH, n=4]",+
3,"[N-]=[N+]=NCCO[C@@H]1O[C@H](CO[C@@H]2O[C@H](CO[C@@H]3O[C@H](CO[C@@H]4O[C@H](CO)[C@@H](O)[C@H](O)[C@H]4O)[C@@H](O)[C@H](O)[C@H]3O)[C@@H](O)[C@H](O)[C@H]2O)[C@@H](O)[C@H](O)[C@H]1O (stereo in doubt) [β-O(CH2)2N3, n=4, 2-Azido ethyl [O-β-D-glucopyranosyl-1,6]3-β-D-glucopyranoside]",+
4,"O=C(O)C1CCN(CC(O)[C@@H](O)[C@H](O)[C@H](O)CO[C@@H]2O[C@H](CO[C@@H]3O[C@H](CO[C@@H]4O[C@H](CO[C@@H]5O[C@H](CO)[C@@H](O)[C@H](O)[C@H]5O)[C@@H](O)[C@H](O)[C@H]4O)[C@@H](O)[C@H](O)[C@H]3O)[C@@H](O)[C@H](O)[C@H]2O)C1 (mixture of isomers) [3-pyrrolidineCO2H, n=4]",+
5,"OCC1OC(OCC2OC(OCC3OC(OCC4OC(OCC5OC(O)C(O)C(O)C5O)C(O)C(O)C4O)C(O)C(O)C3O)C(O)C(O)C2O)C(O)C(O)C1O (stereo not drawn) [OH, n=5]",+
6,"COC1O[C@H](CO[C@@H]2O[C@H](CO[C@@H]3O[C@H](CO[C@@H]4O[C@H](CO)[C@@H](O)[C@H](O)[C@H]4O)[C@@H](O)[C@H](O)[C@H]3O)[C@@H](O)[C@H](O)[C@H]2O)[C@@H](O)[C@H](O)[C@H]1O (stereo partly drawn) [OCH3, n=4, methyl [O-β-D-glucopyranosyl-1,6]3-D-glucopyranoside]",+
7,"CN(Cc1ccc(C(=O)O)cc1)CC(O)[C@@H](O)[C@H](O)[C@H](O)CO[C@@H]1O[C@H](CO[C@@H]2O[C@H](CO[C@@H]3O[C@H](CO[C@@H]4O[C@H](CO[C@@H]5O[C@H](CO[C@@H]6O[C@H](CO)[C@@H](O)[C@H](O)[C@H]6O)[C@@H](O)[C@H](O)[C@H]5O)[C@@H](O)[C@H](O)[C@H]4O)[C@@H](O)[C@H](O)[C@H]3O)[C@@H](O)[C@H](O)[C@H]2O)[C@@H](O)[C@H](O)[C@H]1O (mixture of isomers) [N(Me),N(CH2)4-BzOH, n=6]",+
8,"[N-]=[N+]=NCCO[C@@H]1O[C@H](CO[C@@H]2O[C@H](CO[C@@H]3O[C@H](CO[C@@H]4O[C@H](CO[C@@H]5O[C@H](CO)[C@@H](O)[C@H](O)[C@H]5O)[C@@H](O)[C@H](O)[C@H]4O)[C@@H](O)[C@H](O)[C@H]3O)[C@@H](O)[C@H](O)[C@H]2O)[C@@H](O)[C@H](O)[C@H]1O [β-O(CH2)2N3, n=5, 2-azidoethyl [O-β-D-glucopyranosyl-1,6]4-β-D-glucopyranoside]",+
9,"OC[C@H]1O[C@@H](OC[C@H]2O[C@@H](OC[C@H]3O[C@@H](OC[C@H]4O[C@@H](OC[C@H]5O[C@H](OCCCl)[C@H](O)[C@@H](O)[C@@H]5O)[C@H](O)[C@@H](O)[C@@H]4O)[C@H](O)[C@@H](O)[C@@H]3O)[C@H](O)[C@@H](O)[C@@H]2O)[C@H](O)[C@@H](O)[C@@H]1O [α-O(CH2)2Cl, n=5, 2-chloroethyl [O-β-D-glucopyranosyl-1,6]4-D-glucopyranoside]",+
